The source made the active and inactive calls. For most assays here, no stated cut-off is given here; in the data, actives have a measured EC50 and inactives only a lower limit.
Assays:
H9c2 = experiment: cells; type: functional, cell-based; settings: Rattus norvegicus, H9c2, Myocardium;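 further: confirmatory concentration-response retest of ultra-high-throughput screening hits for modulation of myocardial damage; cell death induced by hydrogen peroxide oxidative stress; compound pretreatment for 60 min then peroxide exposure for 2 h; potency is for protecting the cells against peroxide damage rather than for killing them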
[1] = C. albicans growth with fluconazole, confirmation, fluorescence, retest (AID 2467); type: functional, cell-based
[2] = NIH-3T3 fibroblast cytotoxicity, dose response, cytotoxicity control, cell-based, fluorescence, Alamar Blue, secondary assay (AID 2327); type: functional;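 further: NIH-3T3 mouse fibroblasts cultured with fluconazole at 8 µg/mL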
[3] = P. falciparum Dd2 growth inhibitors, dose response, SYBR Green, cherry-picked samples (AID 1159567); type: functional, cell-based
[4] = target: T1, Polyadenylate-binding protein 1 (Homo sapiens, UniProt P11940); experiment: PABP1 MLLE–PAM2 binding inhibitor potency, dose response, biochemical, fluorescence polarization, FITC-PAM2 peptide (AID 602259); type: functional; settings: read-out: IC50_Mean
[5] = target: T1, Polyadenylate-binding protein 1; experiment: PABP1 MLLE–PAM2 interaction inhibitors, dose response, miRNA deadenylation inhibitor project, biochemical, fluorescence polarization, Cy5-PAM2 peptide, secondary (AID 602260); type: functional; settings: read-out: IC50_Mean
Streptococcus = experiment: Group A Streptococcus viability loss, dose response, counter-screen for streptokinase expression inhibitor project, luminescence, BacTiterGlo (AID 1915); type: functional, organism-based; settings: Streptococcus;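 further: potency for reduction of bacterial viability or growth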
Streptokinase A = target: T2, Streptokinase A (Streptococcus pyogenes serotype M1, UniProt P10520); experiment: S. pyogenes streptokinase expression inhibitors, potency, dose response, plasminogen activation absorbance, OD405 (AID 1914); type: functional, Streptococcus pyogenes M1 GAS;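 further: secreted streptokinase activity via plasminogen activation per viability signal from cell pellet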
T2 sequence (P10520 whole entry): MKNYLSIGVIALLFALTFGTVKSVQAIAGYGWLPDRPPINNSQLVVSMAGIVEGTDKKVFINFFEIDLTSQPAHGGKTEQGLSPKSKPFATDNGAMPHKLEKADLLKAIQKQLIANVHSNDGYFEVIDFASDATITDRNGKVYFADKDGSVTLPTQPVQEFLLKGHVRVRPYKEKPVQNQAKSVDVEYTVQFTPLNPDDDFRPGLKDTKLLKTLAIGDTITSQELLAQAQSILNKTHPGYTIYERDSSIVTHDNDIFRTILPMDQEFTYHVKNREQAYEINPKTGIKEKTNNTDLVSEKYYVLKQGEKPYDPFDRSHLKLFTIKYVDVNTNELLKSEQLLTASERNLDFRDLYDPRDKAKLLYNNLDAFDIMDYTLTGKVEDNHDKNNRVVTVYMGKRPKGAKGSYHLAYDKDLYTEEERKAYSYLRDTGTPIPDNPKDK

[6] = Luminescence Cell-Based Dose Retest to Confirm Inhibitors of Cancer Stem Cells. [Related pubchem assays (depositor defined):AID2717, AID2721]; type: functional; settings: Homo sapiens
[7] = tested on: Streptococcus sp. 'group A'; experiment: growth inhibition of control SK(-) GAS strain, dose response, counter-screen for streptokinase expression inhibitor project, luminescence, kanamycin, BacTiterGlo, confirmation (AID 1900); type: functional, organism-based; settings: Streptococcus sp. 'group A'
[8] = Luminescence Cell-Based Dose Confirmation HTS to Identify Inhibitors of Platelet Dense Granule Release. [Related pubchem assays: 1663 (Primary HTS), 1678 (Summary of Project)]; type: functional
[9] = target: Luciferin 4-monooxygenase (Photinus pyralis, UniProt P08659); experiment: firefly luciferase enzyme inhibitors, dose response, biochemical, luminescence (AID 1891)
[10] = inhibitors of intracellular T. cruzi replication, confirmation, NIH3T3 host cells, beta-gal luminescence (AID 2044); type: functional, cell-based;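 further: intracellular parasites grown in NIH/3T3 mouse fibroblasts as host cells; luminescent beta-galactosidase reporter signal from transgenic T. cruzi replicating inside host cells; inhibitors lower the luminescence signal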
[11] = cytotoxicity toward NIH3T3 fibroblasts, dose response, counter-screen, cell-based, ATP luminescence, mouse fibroblasts (AID 2010); type: functional;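 further: cells exposed to compound for about 90 hours before reading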
[12] = target: T3, Corticotropin-releasing factor receptor 2/Corticotropin-releasing factor-binding protein (Homo sapiens, UniProt P24387+Q13324); experiment: activators of CRF receptor 2 with binding protein – uHTS hits, confirmation (AID 602473); type: functional; settings: read-out: EC50_Mean
T3 sequence (Q13324 whole entry): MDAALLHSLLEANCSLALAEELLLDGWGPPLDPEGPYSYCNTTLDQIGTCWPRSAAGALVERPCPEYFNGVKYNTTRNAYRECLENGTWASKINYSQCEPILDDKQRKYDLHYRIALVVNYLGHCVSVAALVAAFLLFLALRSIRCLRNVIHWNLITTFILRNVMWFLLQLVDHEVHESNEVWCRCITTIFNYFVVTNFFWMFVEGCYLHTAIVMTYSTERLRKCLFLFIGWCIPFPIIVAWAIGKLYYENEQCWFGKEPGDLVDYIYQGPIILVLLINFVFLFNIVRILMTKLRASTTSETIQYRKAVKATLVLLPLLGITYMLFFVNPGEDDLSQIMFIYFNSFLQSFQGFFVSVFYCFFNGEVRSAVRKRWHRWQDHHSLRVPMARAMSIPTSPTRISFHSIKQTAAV
T3 sequence (P24387 whole entry): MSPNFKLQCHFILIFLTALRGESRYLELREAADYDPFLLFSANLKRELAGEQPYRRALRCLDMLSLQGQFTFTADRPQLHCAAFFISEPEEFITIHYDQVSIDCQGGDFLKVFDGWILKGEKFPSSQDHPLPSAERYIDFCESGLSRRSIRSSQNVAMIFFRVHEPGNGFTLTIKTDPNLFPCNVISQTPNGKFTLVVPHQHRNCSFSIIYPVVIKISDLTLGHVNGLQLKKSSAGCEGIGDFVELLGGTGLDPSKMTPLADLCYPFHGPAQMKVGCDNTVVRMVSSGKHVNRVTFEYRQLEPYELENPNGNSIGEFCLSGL

Cytochrome P450 2C9 = Cytochrome P450 2C9 (Homo sapiens, UniProt P11712)
[13] = inhibitors of firefly luciferase expression or activity, dose response, H4 neuroglioma cells, luminescence (AID 1990); type: functional, cell-based

Luciferin 4-monooxygenase, sequence (P08659 whole entry): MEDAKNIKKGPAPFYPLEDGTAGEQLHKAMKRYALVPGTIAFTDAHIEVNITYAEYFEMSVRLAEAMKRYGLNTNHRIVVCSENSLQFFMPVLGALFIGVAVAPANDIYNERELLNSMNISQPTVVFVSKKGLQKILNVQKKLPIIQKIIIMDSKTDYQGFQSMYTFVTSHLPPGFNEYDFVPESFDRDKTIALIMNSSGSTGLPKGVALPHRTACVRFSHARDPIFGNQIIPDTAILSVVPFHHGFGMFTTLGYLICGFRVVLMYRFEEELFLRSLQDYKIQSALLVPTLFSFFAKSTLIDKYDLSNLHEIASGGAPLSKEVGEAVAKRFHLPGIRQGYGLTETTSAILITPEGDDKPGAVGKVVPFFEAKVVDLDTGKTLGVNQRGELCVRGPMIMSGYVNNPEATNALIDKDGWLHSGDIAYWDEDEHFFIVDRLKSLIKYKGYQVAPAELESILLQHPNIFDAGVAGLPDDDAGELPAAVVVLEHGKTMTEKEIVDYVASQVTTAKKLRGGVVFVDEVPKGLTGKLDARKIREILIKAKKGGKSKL
T1 sequence (P11940 whole entry): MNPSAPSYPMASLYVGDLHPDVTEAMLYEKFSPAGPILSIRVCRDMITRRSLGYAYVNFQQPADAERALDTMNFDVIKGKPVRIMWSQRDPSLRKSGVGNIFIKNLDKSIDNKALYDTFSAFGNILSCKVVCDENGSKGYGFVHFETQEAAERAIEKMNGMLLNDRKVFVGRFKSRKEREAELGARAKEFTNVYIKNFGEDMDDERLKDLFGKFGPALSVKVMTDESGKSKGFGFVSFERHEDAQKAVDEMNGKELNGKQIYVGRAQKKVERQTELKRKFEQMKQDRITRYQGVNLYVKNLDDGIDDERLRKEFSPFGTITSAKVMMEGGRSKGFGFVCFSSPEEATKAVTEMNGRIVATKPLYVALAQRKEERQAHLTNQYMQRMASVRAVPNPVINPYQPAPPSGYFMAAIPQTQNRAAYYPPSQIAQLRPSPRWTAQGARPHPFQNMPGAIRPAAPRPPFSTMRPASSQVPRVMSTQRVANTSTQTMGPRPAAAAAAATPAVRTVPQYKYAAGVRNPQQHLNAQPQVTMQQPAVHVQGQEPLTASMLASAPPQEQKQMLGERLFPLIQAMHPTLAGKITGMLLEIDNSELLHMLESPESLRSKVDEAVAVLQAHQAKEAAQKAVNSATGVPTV
Cytochrome P450 2C9, sequence (P11712 whole entry): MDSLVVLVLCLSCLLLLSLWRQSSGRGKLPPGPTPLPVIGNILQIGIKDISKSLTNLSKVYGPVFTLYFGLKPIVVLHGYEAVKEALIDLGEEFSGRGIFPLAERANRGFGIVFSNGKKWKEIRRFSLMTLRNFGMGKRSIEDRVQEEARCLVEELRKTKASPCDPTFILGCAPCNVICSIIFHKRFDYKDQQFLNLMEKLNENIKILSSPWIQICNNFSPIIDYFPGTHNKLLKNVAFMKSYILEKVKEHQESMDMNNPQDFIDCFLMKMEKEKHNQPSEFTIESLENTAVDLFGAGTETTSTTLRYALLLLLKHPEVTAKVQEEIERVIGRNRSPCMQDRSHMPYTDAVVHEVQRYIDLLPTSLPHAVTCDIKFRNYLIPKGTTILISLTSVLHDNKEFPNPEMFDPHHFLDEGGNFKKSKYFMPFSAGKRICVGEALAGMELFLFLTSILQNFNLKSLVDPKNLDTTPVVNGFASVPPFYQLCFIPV

Cc1nn(-c2ccccc2)c(C)c1/C=N/NC(=O)c1cc(C2CC2)[nH]n1
IC50 (H9c2): > 79 µM (inactive)

CSc1ccc(C2c3[nH]c4ccccc4c3CCN2C(=O)c2ccnn2C)cc1 (configuration not stated)
EC50 [1]: 2.7 µM (active) | EC50 [2]: > 150 µM (inactive)

O=C(c1ccc2c(c1)OCO2)N1CCC2(CC1)Oc1ccc(Cl)cc1C(=O)C21CC(c2cccnc2)=NO1 (configuration not stated)
EC50 [1]: 2.08 µM (active) | EC50 [2]: > 150 µM (inactive)

COc1ccc(NC(=O)N(C)C[C@H]2OCc3ccccc3-c3c(n(C)c4ccccc34)C(=O)N([C@H](C)CO)C[C@@H]2C)c(OC)c1
AC50 [3]: 7.42 µM (active)

COc1ccc(S(=O)(=O)N[C@@H]2CC[C@H](CCn3cc(-c4ccccc4F)nn3)O[C@@H]2CO)cc1
AC50 [3]: 8.67 µM (active)

N#CC1=C(N)N=C(SCc2cccc3ccccc23)C(C(N)=O)C12CCCCC2 (configuration not stated)
IC50 [4]: > 66 µM (inactive) | IC50 [5]: > 66 µM (inactive)

CO[C@@H]1CN(C)C(=O)c2cc(NC(=O)Nc3cccc(Cl)c3)ccc2OC[C@@H](C)NC[C@@H]1C
AC50 [3]: 9.36 µM (active)

CNC(=S)N/N=C/c1cn(Cc2ccc(C)cc2)c2ccccc12
EC50 (Streptococcus): 28 µM (active) | EC50 (Streptokinase A): 74.1 µM (active) | AC50 [6]: 3.07 µM (active) | EC50 [7]: 5.29 µM (active)

COc1ccc(-n2c(S)nnc2-c2cccc(C)c2[N+](=O)[O-])cc1
EC50 [1]: 1.7 µM (active) | EC50 [2]: > 150 µM (inactive)

CCc1nc(NC(C)C)c2oc3ccccc3c2n1
EC50 [8]: > 112 µM (not active) | EC50 [9]: > 112 µM (not active)

O=C(N/N=C/c1ccncc1)c1ccc(COc2cccc3cccnc23)cc1
IC50 (H9c2): 14.3 µM (active)

CC1CCC2C(=O)N(c3ccc(NC4CCCCC4)c([N+](=O)[O-])c3)C(=O)C2C1 (configuration not stated)
AC50 [6]: < 0.16 µM (active)

O=C1CN(S(=O)(=O)c2ccccc2)C[C@H]2[C@H](c3ccc(C#CCc4ccccc4)cc3)[C@@H](CO)N12
AC50 [3]: 4.06 µM (active)

CCOc1ccccc1-c1nc(C(N)=O)c2nc(O)n(-c3cccc(C)c3)c2n1
EC50 [8]: > 112 µM (not active) | EC50 [9]: > 112 µM (not active)

COc1ccc(/C=C/C(=O)NC(=S)Nc2ccc(S(=O)(=O)Nc3nccnc3OC)cc2)cc1
IC50 [4]: > 66 µM (inactive) | IC50 [5]: > 66 µM (inactive)

CCNS(=O)(=O)c1ccc(NC(=O)Nc2cccc(C(F)(F)F)c2)cc1
EC50 [10]: 3.63 µM (active) | EC50 [11]: > 60 µM (not active) | AC50 [6]: 7.58 µM (active)

CC(C)C(NC(=O)c1ccccc1)C(=O)NC1=NCCS1 (configuration not stated)
IC50 [4]: > 66 µM (inactive) | IC50 [5]: > 66 µM (inactive)

Cc1nnc(NC(=O)c2c(-c3ccccc3Cl)noc2C)s1
EC50 [1]: 4.42 µM (active) | EC50 [2]: 32.1 µM (active)

CC1CCN(C(=O)COC(=O)c2nnc(O)c3ccccc23)CC1
IC50 (H9c2): > 79 µM (inactive)

CCc1ccc(CNC(=O)C2CCN(c3nnc(C)c4c(C)n(-c5ccc(C)cc5)nc34)CC2)cc1
AC50 [6]: 3.85 µM (active)

NC(=O)N1CCC2(CC1)NC(=O)N(c1ccccc1)N2
EC50 [2]: > 150 µM (inconclusive)

COc1ccc(CN(C)C(=O)C(Cc2ccccc2)NC(=O)c2ccccc2)cc1F (configuration not stated)
IC50 (H9c2): > 79 µM (inactive)

CC(=O)Oc1ccc(-c2csc(Nc3ccc(Cl)cn3)n2)cc1
AC50 [6]: 5.14 µM (active)

O=Nc1c(O)n(Cc2c(Cl)cccc2Cl)c2ccccc12
EC50 [8]: > 112 µM (not active) | EC50 [12]: 4.67 µM (active) | EC50 [9]: > 112 µM (not active)

CN(C)S(=O)(=O)c1cccc(NC(=O)COC(=O)c2ccc([N+](=O)[O-])o2)c1
IC50 (H9c2): 10.3 µM (active)

O=C(CC1Oc2ccccc2NC1=O)NC1CC1 (configuration not stated)
EC50 [8]: > 112 µM (not active) | EC50 [9]: > 112 µM (not active)

C/C(=N\NC(=O)c1cccnc1)c1ccc(OC2OCCOC2Oc2ccc(/C(C)=N/NC(=O)c3cccnc3)cc2)cc1 (configuration not stated)
IC50 (H9c2): > 79 µM (inactive)

Cc1ccc2occ(/C=N/NC(=O)c3ccccc3O)c(=O)c2c1
EC50 [1]: > 38 µM (not active) | EC50 [2]: > 150 µM (inconclusive)

Cc1[nH]c2ccccc2c1C(Nc1nccs1)c1ccncc1 (configuration not stated)
EC50 [8]: 14.6 µM (active) | EC50 [9]: > 112 µM (not active)

CCOc1cc(C2C3=C(O)CCCC3=NC3=C2C(=O)CCC3)ccc1OCCO (configuration not stated)
IC50 [4]: > 66 µM (inactive) | IC50 [5]: > 66 µM (inactive)

O=C(COc1ccccc1F)Nc1nc(-c2ccccn2)cs1
IC50 (H9c2): > 79 µM (inactive)

NC(=NOC(=O)c1ccccc1Cl)c1nonc1N
EC50 [8]: 4.54 µM (active) | EC50 [9]: 1.11 µM (active)

Cc1nn2c(nc(O)c3ccccc32)c1C=O
AC50 (Cytochrome P450 2C9): 15.8 µM (inconclusive) | EC50 [1]: 2.16 µM (active) | EC50 [2]: > 160 µM (inactive)

O=C(CSC1=NCCS1)Nc1ccccc1F
IC50 [4]: > 66 µM (inactive) | IC50 [5]: > 66 µM (inactive)

Fc1ccc(-[n+]2nc(Nc3ccccc3)sc2-c2cccc(Cl)c2Cl)cc1
IC50 [4]: > 66 µM (inactive) | IC50 [5]: > 66 µM (inactive)

Cc1ccc(O)c(NC(=S)NC(=O)/C=C/c2ccccc2)c1
IC50 [4]: > 66 µM (inactive) | IC50 [5]: > 66 µM (inactive)

COC(=O)c1sc(NC(=O)c2c(C)noc2C)nc1C
EC50 [8]: > 112 µM (not active) | EC50 [9]: 30.6 µM (active)

COc1cccc(NC(=O)CN(C)C(=O)CCCc2nc(O)c3ccccc3n2)c1
IC50 (H9c2): > 79 µM (inactive)

COc1ccc2c3c([nH]c2c1)[C@@H](CO)N(Cc1ccccc1F)CC31CCN(C(=O)C2CCOCC2)CC1
AC50 [3]: 6.46 µM (active)

CC(=O)c1cccc(NC(=O)COC(=O)[C@@H](NC(=O)OCc2ccccc2)C(C)C)c1
EC50 [8]: > 112 µM (not active) | EC50 [9]: > 112 µM (not active)

CCCOc1ccc(C2=NNC(=O)CC2)cc1
EC50 [13]: < 0.1 µM (active)

C=CCn1c[n+](CC(=O)c2ccc(Br)s2)c2ccccc21
EC50 [1]: > 38 µM (not active) | EC50 [2]: > 160 µM (inactive)

CC1CCN(CCCNC(=O)c2nnc(O)c3ccccc23)CC1
IC50 (H9c2): 48.9 µM (inactive)

COc1ccc2nc(O)c(CN(Cc3ccco3)Cc3nnnn3Cc3ccccc3)cc2c1
IC50 (H9c2): > 79 µM (inactive)

COc1ccc2nc(O)c(CN(CCc3ccccc3)Cc3nnnn3CC3CCCO3)cc2c1 (configuration not stated)
IC50 (H9c2): 14.6 µM (active)

Cc1ccc(NC(S)=Nc2cccc3cnccc23)cc1C
AC50 [6]: 62.1 µM (active)

Cn1cccc1/C=C1\SC(=S)N(Nc2ccccc2)C1=O
EC50 [10]: 2.67 µM (active) | EC50 [11]: 3.85 µM (active) | AC50 [6]: 0.978 µM (active)

COc1ccc(OC)c(S(=O)(=O)N2CCN(C(=O)c3cc(C4CC4)nn3-c3ccccc3)CC2)c1
IC50 [4]: > 66 µM (inactive) | IC50 [5]: > 66 µM (inactive)

CNC(S)=NCCc1ccc(OC)c(OC)c1
EC50 [8]: > 112 µM (not active) | EC50 [9]: > 112 µM (not active)

Reference: ChEMBL document CHEMBL1201862, “PubChem BioAssay data set” (2004)
